We go through 34 molecules from patent publication US9290427B2, “Anti-invasive compounds” (Universiteit Gent, priority 2012, dated 2016).

Series [1] relates to MCF-7/6 mammary carcinoma cells. More on the design: unit not given here. The settings on record: training set compounds 1-34, Indo-Belgian screening program; class = log cmin, lowest concentration with invasion grade I or II; cited from earlier work.

As to `COc1cc(O)c(C(=O)/C=C/c2ccc(Oc3ccccc3)cc2)cc1C(c1ccccc1)c1ccccc1` [Compound 3, (2E)-1-(5-Benzhydryl-2-hydroxy-4-methoxyphenyl)-3-(4-phenoxyphenyl)propenone], the Actual class in series [1] is reported as 3 (>100). Turning to `Cc1ccc(/C=C/C(=O)c2c(O)c3c(c4c2OC(C)(C)CC4)OC(C)(C)CC3)cc1` [Compound 4, (2E)-1-(5-Hydroxy-2,2,8,8-tetramethyl-3,4,9,10-tetrahydro-2H,8H-pyrano[2,3-f]chromen-6-yl)-3-p-tolyl-propenone], in series [1], the Actual class is 3 (>100). `COc1cc(OC)c(C(=O)/C=C/c2ccc3c(c2CCc2ccccc2)CCC(C)(C)O3)cc1CC=C(C)C` [Compound 5, (2E)-1-[2,4-Dimethoxy-5-(3-methylbut-2-enyl)phenyl]-3-(2,2-dimethyl-5-phenethylchroman-6-yl)propenone]: the Actual class in series [1] was 1 (about 10).

For `CC1(C)CCc2c(O)c(C(=O)/C=C/c3ccc(Oc4ccccc4)cc3)c3c(c2O1)CCC(C)(C)O3` [Compound 6, (2E)-1-(5-Hydroxy-2,2,8,8-tetramethyl-3,4,9,10-tetrahydro-2H,8H-pyrano[2,3-f]chromen-6-yl)-3-(4-phenoxypheny)propenone], the Actual class in series [1] is 3 (>100).

Consider `COc1ccc(/C=C/C(=O)c2c(O)c3c(c4c2OC(C)(C)CC4)OC(C)(C)CC3)cc1OCc1ccccc1` [Compound 7, (2E)-3-(3-Benzyloxy-4-methoxy-phenyl)-1-(5-hydroxy-2,2,8,8-tetramethyl-3,4,9,10-tetrahydro-2H,8H-pyrano[2,3-f]chromen-6-yl)propenone], for which the Actual class in series [1] was 3 (>100). Regarding `CC(C)c1ccc(/C=C/C(=O)c2c(O)c3c(c4c2OC(C)(C)CC4)OC(C)(C)CC3)cc1` [Compound 8, (2E)-1-(5-Hydroxy-2,2,8,8-tetramethyl-3,4,9,10-tetrahydro-2H,8H-pyrano[2,3-f]chromen-6-yl)-3-(4-isopropylphenyl)propenone], the Actual class in series [1] is 3 (>100). Regarding `COc1cccc(/C=C/C(=O)c2cc3c(cc2O)OC(C)(C)C(O)C3)c1OC` (stereo not shown) [Compound 9, (2E)-1-(3,7-Dihydroxy-2,2-dimethylchroman-6-yl)-3-(2,3-dimethoxy-phenyl)propenone], the Actual class in series [1] is recorded as 1 (about 10). In the case of `COc1cc(OC)c(C(=O)/C=C/c2ccc([N+](=O)[O-])cc2)cc1CC=C(C)C` [Compound 10, (2E)-3-(4-nitrophenyl)-1-(2′,4′-dimethoxy-5′-(3-methylbut-2-enyl)phenyl)propenone], the Actual class in series [1] is 3 (>100). Turning to `COc1cc(OC)c(C(=O)/C=C/c2ccccc2)c(O)c1CC=C(C)C` [Compound 11, (2E)-3-phenyl-1-(2′-hydroxy-4′,6′-dimethoxy-3′-(3-methylbut-2-enyl)phenyl)propenone], the Actual class in series [1] is 2 (about 100).

Take `COc1ccc(/C=C/C(=O)c2cc3c(cc2O)OC(C)(C)C(O)C3)c(OC)c1` (stereo not shown) [Compound 12, (2E)-1-(3,7-Dihydroxy-2,2-dimethylchroman-6-yl)-3-(2,4-dimethoxy-phenyl)propenone]: the Actual class in series [1] is 1 (about 10). On to `COc1cc(/C=C/C(=O)c2ccc(OCc3ccccc3)c(OCc3ccccc3)c2)ccc1OCc1ccccc1` [Compound 13, (2E)-3-(4-Benzyloxy-3-methoxyphenyl)-1-(3,4-bis-benzyloxyphenyl)propenone], for which the Actual class in series [1] was 1 (about 10). With `COc1cc(OC)c(C(=O)/C=C/c2ccc(C(C)C)cc2)cc1CC=C(C)C` [Compound 14, (2E)-3-(4-(1-methylethyl)phenyl)-1-(2′,4′-dimethoxy-5′-(3-methylbut-2-enyl)phenyl)propenone], the Actual class in series [1] is 1 (about 10). As to `COc1cc(OC)c(C(=O)/C=C/c2ccccc2)c(OC)c1CC=C(C)C` [Compound 15, (2E)-3-phenyl-1-(2′,4′,6′-trimethoxy-3′-(3-methylbut-2-enyl)phenyl)propenone], in series [1], the Actual class was 3 (>100). Turning to `COc1ccc(C(=O)/C=C/c2ccc(C)cc2)cc1OC` [Compound 16, (2E)-3-(4-methylphenyl)-1-(3′,4′-dimethoxyphenyl)propenone], in series [1], the Actual class was 2 (about 100).

In the case of `COc1cc(OC)c(C(=O)/C=C/c2ccccc2)c(O)c1OC` [Compound 17, (2E)-3-phenyl-1-(2′-hydroxy-3′,4′,6′-trimethoxyphenyl)propenone], the Actual class in series [1] is reported as 2 (about 100). Take `COc1cc(OC)c(C(=O)/C=C/c2ccccc2)cc1CC=C(C)C` [Compound 18, (2E)-3-phenyl-1-(2′,4′-dimethoxy-5′-(3-methylbut-2-enyl)phenyl)propenone]: the Actual class in series [1] is given as 0 (about 1).

In the case of `COc1cc(OC)c(C(=O)/C=C/c2ccc(OC)c(OC)c2)cc1CC=C(C)C` [Compound 19, (2E)-3-(3,4-dimethoxyphenyl)-1-(2′,4′-dimethoxy-5′-(3-methylbut-2-enyl)phenyl)propenone], in series [1], the Actual class is reported as 1 (about 10). Consider `COc1ccc(C(=O)/C=C/c2ccc([N+](=O)[O-])cc2)cc1OC` [Compound 20, (2E)-3-(4-nitrophenyl)-1-(3′,4′-dimethoxyphenyl)propenone], for which the Actual class in series [1] is reported as 3 (>100). In the case of `COc1cc(O)c(C(=O)/C=C/c2ccccc2)c(OC)c1OC` [Compound 21, (2E)-3-phenyl-1-(6′-hydroxy-2′,3′,4′-trimethoxyphenyl)propenone], the Actual class in series [1] is listed as 0 (about 1). Regarding `COc1ccc(/C=C/C(=O)c2ccc3c(c2)OCO3)c(OC)c1` [Compound 22, (2E)-1-Benzo[1,3]dioxol-5-yl-3-(2,4-dimethoxyphenyl)propenone], the Actual class in series [1] is reported as 2 (about 100).

`COc1ccc(/C=C/C(=O)c2cc3c(cc2O)OC(C)(C)CC3)cc1OC` [Compound 23, (2E)-3-(3,4-Dimethoxyphenyl)-1-(7-hydroxy-2,2-dimethylchroman-6-yl)propenone]: in series [1], the Actual class was 2 (about 100). Regarding `COc1cc(OC)c(C(=O)/C=C/c2ccccc2)c2c1CC(O)C(C)(C)O2` (stereo not shown) [Compound 24, (2E)-1-(3-Hydroxy-5,7-dimethoxy-2,2-dimethylchroman-8-yl)-3-phenylpropenone], the Actual class in series [1] is 0 (about 1). Regarding `COc1cccc(/C=C/C(=O)c2ccc3c(c2)OCO3)c1OC` [Compound 26, (2E)-1-Benzo[1,3]dioxol-5-yl-3-(2,3-dimethoxyphenyl)propenone], the Actual class in series [1] is on record as 1 (about 10). In the case of `COc1cc(O)c(CC=C(C)C)c(O)c1C(=O)/C=C/c1ccc(O)cc1` [Compound 27, (2E)-3-(4-hydroxyphenyl)-1-(2′,4′-dihydroxy-6′-methoxy-3′-(3-methylbut-2-enyl)phenyl)propenone], the Actual class in series [1] is 0 (about 1).

As to `C=CCOc1c(OC)cc(O)c(C(=O)/C=C/c2ccc(O)cc2)c1OC` [Compound 28, (2E)-3-(4-hydroxyphenyl)-1-(6′-hydroxy-2′,4′-dimethoxy-3′-(2-propenyloxy)phenyl)propenone], the Actual class in series [1] is on record as 1 (about 10). For `COc1ccc(/C=C/C(=O)c2cc3c(cc2OC)OC(C)(C)C(O)C3)c(OC)c1` (stereo not shown) [Compound 29, (2E)-3-(2,4-Dimethoxyphenyl)-1-(3-hydroxy-7-methoxy-2,2-dimethylchroman-6-yl)-propenone], in series [1], the Actual class is recorded as 3 (>100). In the case of `COc1ccc(/C=C/C(=O)c2cc3c(cc2O)OC(C)(C)C=C3)c(OC)c1` [Compound 30, (2E)-3-(2,4-Dimethoxyphenyl)-1-(7-hydroxy-2,2-dimethyl-2H-chromen-6-yl)propenone], in series [1], the Actual class is 3 (>100). Turning to `COc1ccc(C(=O)/C=C/c2ccc(C(C)C)cc2)cc1OC` [Compound 31, (2E)-3-(4-(1-methylethyl)phenyl)-1-(3′,4′-dimethoxyphenyl)propenone], the Actual class in series [1] was 3 (>100). With `COc1ccc(C(=O)/C=C/c2cccc(Oc3ccccc3)c2)cc1OC` [Compound 32, (2E)-3-(3-phenoxyphenyl)-1-(3′,4′-dimethoxyphenyl)propenone], the Actual class in series [1] is recorded as 3 (>100). Consider `COc1ccc(/C=C/C(=O)c2cc(CC=C(C)C)c(OC)cc2OC)c(OC)c1` [Compound 33, (2E)-3-(2,4-dimethoxyphenyl)-1-(2′,4′-dimethoxy-5′-(3-methylbut-2-enyl)phenyl)propenone], for which the Actual class in series [1] is 3 (>100).

For `COc1cc(OC)c(C(=O)/C=C/c2cccc(Oc3ccccc3)c2)cc1CC=C(C)C` [Compound 34, (2E)-3-(3-phenoxyphenyl)-1-(2′,4′-dimethoxy-5′-(3-methylbut-2-enyl)phenyl)propenone], in series [1], the Actual class is on record as 3 (>100).

Regarding `Fc1ccc(/C=C/c2ccc(F)cc2)cc1` [Compound 90, (E)-4,4′-Difluorostilbene], the melting point (in general, the temperature, or range, at which the solid turns liquid) lay in the range of 116 to 117 °C.

Take `Fc1ccc(/C=C/c2cccc(F)c2)cc1` [Compound 98, (E)-3,4′-Difluorostilbene]: the melting point lay within 92 to 93 °C.

Molecule `COc1cccc(/C=C/c2ccc(Cl)cc2)c1` [Compound 99, (E)-4′-Chloro-3-methoxystilbene] registered a melting point of 71 to 72 °C.
